In patent US20060222595A1, “Nanoparticles for therapeutic and diagnostic applications” (priority 2005, published 2006):

Assay: Saturation concentration of agents on gold nanoparticles (UV-Visible absorbance)
Assay type: physicochemical
Description: The individual saturation concentrations of a monoclonal anti-VEGF antibody agent and a gemcitabine agent to gold nanoparticles were determined in the following manner. Eight tubes containing 1 ml of gold nanoparticles each were incubated with increasing concentrations of the anti-VEGF antibody for 30 minutes, followed by an aggregation assay involving incubation with 100 μl of a 10% NaCl solution. Approximately 15 min. after the addition of the NaCl solution, the UV-Visible spectra were recorded using a Shimadzu model system (UV2401 PC), and the saturation concentration of the antibody was determined.
The attachment of gemcitabine to the gold nanoparticles and the determination of its saturation concentration were performed similarly.
The saturation concentration of gemcitabine on the gold nanoparticles was determined in a similar manner. Gold nanoparticles were incubated with different concentrations of gemcitabine for 30 min., and their UV-Visible spectra were recorded. […] This shift in Ymax value with a concomitant decrease in absorbance and a broadening of the spectra may be attributed to the aggregation of gold nanoparticles upon the addition of gemcitabine beyond the 20 μg limit. […]

saturation concentration of gemcitabine on gold nanoparticles (absorbance maximum) (30 min incubation, UV-Visible spectra) [µg]	saturation concentration of dopamine on gold nanoparticles (surface plasmon resonance band, UV-visible spectroscopy) [µg/mL]	SMILES
20		Nc1ccn([C@@H]2O[C@H](CO)[C@@H](O)C2(F)F)c(=O)n1 [gemcitabine]
	~30	NCCc1ccc(O)c(O)c1 [dopamine]
